# Tests used:
# [1] = system: serum cortisone; experiment: Serum cortisone and cortisol in patients with painful diabetic peripheral neuropathy; type: in vivo, human; conditions: 10 mg for 6 weeks
# [2] = molecular target: T1, brain HSD-1 (Homo sapiens, UniProt P28845); experiment: Brain HSD-1 occupancy by PET, competition with [11C]AS2471907; type: in vivo; conditions: single dose 3 mg
# T1 construct: Brain HSD-1 occupancy following a single dose of SPI-62 3 mg; from tissue; host or cells: brain in vivo
# Description: Brain HSD-1 occupancy following a single dose of SPI-62 3 mg, assessed by competition with the HSD-1-specific PET ligand [^11C]AS2471907, was 84-90% at 3.3 to 25 hours, 56-83% at 42 to 46 hours, 36 to 45% at 139 hours, and 26% at 189 hours. The pharmacologic half-life of SPI-62 in brain is, as expected, shorter than that in liver.
# [3] = Phase 2 trial 3662-CL-0049 in painful diabetic peripheral neuropathy: TC, glucose, HbA1c, TG; type: in vivo, human
# Description: Analyses of covariance were conducted to analyze total cholesterol (TC), glucose, glycated hemoglobin (HbA1c), and triglycerides (TG), with baseline value as the covariate and a baseline*treatment interaction term, in patients with painful diabetic peripheral neuropathy following daily administration of SPI-62 or placebo. Data were obtained from study 3662-CL-0049, a Phase 2 randomized, double-blind, placebo- and active-controlled clinical trial of the safety and efficacy of SPI-62 in subjects with painful diabetic peripheral neuropathy.
# [4] = molecular target: T2, adipose HSD-1 (Homo sapiens, UniProt P28845); experiment: Adipose HSD-1 inhibition by microdialysis (D8 cortisone to D8 cortisol) in subjects with type 2 diabetes given SPI-62; type: in vivo
# T2 construct: infused continuously into subcutaneous abdominal adipose tissue via microdialysis catheters; from tissue; host or cells: human subcutaneous abdominal adipose tissue, in vivo
# Description: Male and non-menstruating female subjects with type 2 diabetes aged between 18 and 65 years with a body mass index between 30.0 and 45.0 were administered SPI-62 daily for 14 days. […] Percent adipose HSD-1 inhibition was calculated as: 100*(1-(MPFt/MPFbaseline).
# The time (t) of the sample was considered to be the midpoint of the collection interval. […] Data shown are the median inhibition observed in two subjects for whom the SPI-62 daily dose was 6 mg.
# Male and non-menstruating female subjects with type 2 diabetes aged between 18 and 65 years with a body mass index between 30.0 and 45.0 were administered SPI-62 daily for 14 days. In addition to the six subjects described in Example 1 who received SPI-62 1, 3, or 6 mg for 14 days, six additional subjects received SPI-62 1, 2, 3, or 10 mg for 5 to 8 days. […] Percent adipose HSD-1 inhibition was calculated as: 100*(1-(MPFt/MPFbaseline). The time (t) of the sample was considered to be the midpoint of the collection interval. A higher sensitivity assay for D8 cortisol was used to enable quantitation of adipose HSD-1 inhibition of >95%.
# [5] = molecular target: HSD-1 (Homo sapiens, UniProt P28845); conditions: both, in vivo
# [6] = molecular target: liver HSD-1 (Homo sapiens, UniProt P28845); experiment: Urinary HSD-1 ratio (tetrahydrocortisol+allotetrahydrocortisol)/tetrahydrocortisone; type: in vivo; parameters: from tissue; host or cells: human liver in vivo, read through urinary steroid metabolites; conditions: for mean urinary HSD-1 ratio, reduction from baseline: 0.7 mg daily
# Source text: The tetrahydro metabolites are rapidly and extensively excreted in urine. […] Continued adrenal synthesis provides a circulating pool of cortisol, the free fraction of which (˜5%) enters cells. That prevents the urinary HSD-1 ratio from dropping below approximately 0.1.
# [7] = molecular target: T3, human HSD-1 expressed in CHO cells (Homo sapiens, UniProt P28845); experiment: Inhibition of human HSD-1 expressed in CHO cells; type: cell-based
# T3 construct: expressed in transfected cells; host or cells: CHO cells
# [8] = Clinical effective daily dose and side effects of HSD-1 inhibitors; conditions: human, in vivo
# Description: Pseudo-irreversible HSD-1 inhibitors might have additional advantages over other HSD-1 inhibitors. For example, with durable pharmacologic effect, pseudo-irreversible HSD-1 inhibitors are more amenable to less than daily dosing including depot formulations and less likely to show decreased efficacy based on imperfect patient compliance. Additionally, HSD-1 in the human body appears to become completely occupied with approximately 3 mg of a potent small molecule inhibitor. Because pseudo-irreversible inhibitors, once bound, distribute only slowly off HSD-1 a low chronic dose is possible. Several pseudo-irreversible HSD-1 inhibitors, such as SPI-62, ABT-384, MK-0736, and MK-0916, have effective dose ranges below 10 mg daily.
# [9] = molecular target: purified human HSD-1 (Homo sapiens, UniProt P28845); experiment: In vitro inhibition of purified human HSD-1; type: biochemical
# Chain of purified human HSD-1 (P28845 whole entry): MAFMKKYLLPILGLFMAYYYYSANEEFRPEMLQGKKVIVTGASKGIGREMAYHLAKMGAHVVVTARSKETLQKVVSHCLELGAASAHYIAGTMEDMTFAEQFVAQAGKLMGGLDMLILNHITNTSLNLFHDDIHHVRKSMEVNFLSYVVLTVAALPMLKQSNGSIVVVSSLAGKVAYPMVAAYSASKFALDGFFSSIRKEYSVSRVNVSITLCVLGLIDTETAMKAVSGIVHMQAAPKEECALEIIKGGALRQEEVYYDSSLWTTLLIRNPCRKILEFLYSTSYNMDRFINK
# Chain of liver HSD-1 (P28845 whole entry): as above
# T2 sequence (P28845 whole entry, the tested form may be a part): as the sequence (P28845 whole entry) above
# T1 sequence (P28845 whole entry): as above
# T3 sequence (P28845 whole entry): as above
# Chain of HSD-1 (P28845 whole entry): as above
smiles,measurement,setting,value
"Cn1c(-c2ccc(C(N)=O)cc2F)nnc1C(C)(C)Oc1c(F)cc(Cl)cc1F [SPI-62, 4-(5-(2-(4-chloro-2,6-difluorophenoxy)propan-2-yl)-4-methyl-4H-1,2,4-triazol-3-yl)-3-fluorobenzamide]",serum cortisol,[1],did not change
same,serum cortisone,[1]; last day of study drug administration (n=36),56.0 (2.37) nM
same,serum cortisone,[1]; two weeks later,49.5 (1.75) nM
same,brain HSD-1 occupancy,[2]; 3.3 to 25 hours,84-90%
same,brain HSD-1 occupancy,[2]; 42 to 46 hours,56-83%
same,"Glucose, least squares mean (standard error)",[3]; Week 6/EOT,7.61 (0.556) mmol/L
same,"HbA1c, least squares mean (standard error)",[3]; Week 6/EOT,7.1%
same,"TG, least squares mean (standard error)",[3]; Week 6/EOT,1.68 (0.202) mmol/L
same,"TC, least squares mean (standard error)","[3]; Week 6/EOT, N = 36",3.95 (0.120) mmol/L
same,"Glucose, least squares mean (standard error)",[3]; Week 8/EOS,7.78 (0.546) mmol/L
same,"HbA1c, least squares mean (standard error)",[3]; Week 8/EOS,7.02%
same,"TC, least squares mean (standard error)",[3]; Week 8/EOS,4.16 (0.105) mmol/L
same,"TG, least squares mean (standard error)",[3]; Week 8/EOS,1.63 (0.113) mmol/L
same,"adipose HSD-1 inhibition, 2nd v 14th dose intervals",[4]; SPI-62 6 mg daily,almost identical
same,time after a single dose at which adipose HSD-1 inhibition was detected,"[4]; SPI-62 6 mg daily, median of two subjects, FIG. 1",2 to 4 h
same,adipose HSD-1 inhibition during the 2nd dose interval,"[4]; SPI-62 6 mg daily, quantitation limited to ~90-95%",maximal measurable levels
same,adipose HSD-1 inhibition after multiple doses,"[4]; SPI-62 1, 2, 3, or 10 mg",maximum measurable
same,tachyphylaxis of human adipose HSD-1 inhibition with multiple dosing,"[4]; human, in vivo",does not show
same,adipose HSD-1 inhibition after lower single doses,[4]; lower single SPI-62 doses,no or limited
same,total target amount in the central compartment (RTOT),[5],7.84 µM
same,mean reduction of the urinary HSD-1 ratio from baseline,"[6]; 0.2 mg daily for 14 days, last dosing day",87%
same,time after the last dose with incomplete return of urinary HSD-1 ratio to baseline,[6]; healthy adults,more than 2 weeks
same,"mean urinary HSD-1 ratio, reduction from baseline","[6]; healthy adults, 16±2 days after cessation",55%
same,"mean urinary HSD-1 ratio, reduction from baseline","[6]; healthy adults, last dosing day",84%
same,mean urinary HSD-1 ratio,"[6]; patients, 10 mg daily for 6 weeks, 2 weeks after the last dose",0.33
same,mean urinary HSD-1 ratio,"[6]; patients, 10 mg daily for 6 weeks, last dosing day",0.13
same,mean urinary HSD-1 ratio,"[6]; single 1 mg dose, urine 0 to 6 hours post-dose",0.694
same,mean urinary HSD-1 ratio,"[6]; single 1 mg dose, urine 6 to 12 hours post-dose",0.471
same,mean urinary HSD-1 ratio,"[6]; single 1 mg dose, urine 12 to 24 hours post-dose",0.472
same,mean urinary HSD-1 ratio,"[6]; single 1 mg dose, urine 24 to 48 hours post-dose",0.522
same,mean urinary HSD-1 ratio,"[6]; single 1 mg dose, urine 48 to 72 hours post-dose",0.618
same,mean difference v placebo of the urinary HSD-1 ratio,[6]; single dose 1 mg,51%
same,Ki,[7],12.6 nM
same,effective dose range,[8],below 10 mg daily
same,IC50,[9],17 nM
same,Ki,[9],5.3 nM
